{
  "source": "paper PMC9424684",
  "about": "“Z1456467176 alleviates gouty arthritis by allosterically modulating P2X7R to inhibit NLRP3 inflammasome activation” (Frontiers in Pharmacology, 2022)",
  "biological_target": "T1, hP2X7R (purinergic receptor P2X7, P2X7R) (Homo sapiens, UniProt Q99572)",
  "T1 construct": "gene P2RX7; homotrimer",
  "T1 sequence (Q99572 1-595)": "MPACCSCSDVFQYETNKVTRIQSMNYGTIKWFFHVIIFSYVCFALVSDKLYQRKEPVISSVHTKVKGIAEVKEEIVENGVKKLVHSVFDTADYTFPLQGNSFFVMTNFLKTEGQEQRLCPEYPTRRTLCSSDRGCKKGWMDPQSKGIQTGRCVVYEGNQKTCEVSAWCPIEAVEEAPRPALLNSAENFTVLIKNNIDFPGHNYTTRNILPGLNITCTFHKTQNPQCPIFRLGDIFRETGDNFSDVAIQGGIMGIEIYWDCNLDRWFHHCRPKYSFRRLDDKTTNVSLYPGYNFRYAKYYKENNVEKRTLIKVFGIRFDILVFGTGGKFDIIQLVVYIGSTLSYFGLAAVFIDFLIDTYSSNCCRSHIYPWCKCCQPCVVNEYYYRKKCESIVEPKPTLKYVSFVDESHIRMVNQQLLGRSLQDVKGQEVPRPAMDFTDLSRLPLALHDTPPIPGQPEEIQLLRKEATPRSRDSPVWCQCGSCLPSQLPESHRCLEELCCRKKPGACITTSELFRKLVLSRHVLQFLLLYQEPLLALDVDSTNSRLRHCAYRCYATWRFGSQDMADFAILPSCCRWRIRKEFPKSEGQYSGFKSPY",
  "test": "ethidium bromide uptake (pore formation), flow cytometry, HEK-293T cells",
  "type": "cell-based",
  "conditions": "read-out: EB uptake IC50",
  "note": "Structures can show the parent of a compound that is named as a salt.",
  "data": [
    {"smiles": "CC(Cc1cccc(C(F)(F)F)c1)C(=O)Nc1cccc(S(=O)(=O)NCCN)c1", "note": "(stereo not shown) [Z1456467176, N-{3-[(2-aminoethyl)sulfamoyl]phenyl}-2-methyl-3-[3-(trifluoromethyl)phenyl] propanamide hydrochloride]", "values": [
      {"measurement": "IC50", "value": 3.42, "unit": "µM"}
    ]}
  ]
}
